Entries after “also recorded” stand apart in the source; their conditions may differ. Bridge positions count the residues as written; N and C are the ends. Ends that are not written are not given here.

Experiment [1] relates to polarized Calu-3 cell monolayers. Put plainly: Transepithelial electrical resistance (TEER) assay on polarized Calu-3 cell monolayers. As to conditions: peptide 250 μM added to apical and basolateral compartment; peak TEER value as percent of Tip peptide (=100%). The format is cell-based, human.
The subject of experiment [2] is isolated blood perfused flooded rat lung (E. coli-LPS induced lung edema). Nature of the experiment: Endotoxin induced lung injury in the isolated blood perfused flooded rat lung model. The format is in vivo, male Spraque-Dawley rats. As to conditions: P5 3 mg or P9 10 mg in 1 ml saline i.t.; for Attenuation of LPS-induced total lung weight gain / lung edema production: LPS 3 mg/kg i.t., 18 h, 2-h ex-vivo reperfusion; for Inspiratory resistive work / Static and dynamic lung compliance: LPS-treated lungs; for Inspiratory resistive work / Static and dynamic lung compliance / Effect on lung wet/dry weight ratio: 2-h reperfusion; for Effect on lung wet/dry weight ratio: versus LPS+saline treated lungs. The procedure:
In the “Endotoxin induced lung injury in the isolated blood perfused flooded rat lung model”, which is an ex vivo permeability lung edema model, E. coli-LPS is instilled intratracheally and after […] the lung is isolated and placed in an artificial thorax chamber. Then, perfusion occurs with autolo-gous blood. After an one hour stabilisation period, the test compound (in 1 ml saline) is instilled intratra-cheally. Lung parameters are measured over 2 hours. The main read-outs are lung-weight and parameters of lung mechanics and hemodynamics.
In the “Endotoxin induced lung injury in the isolated blood perfused flooded rat lung model”, which is an ex vivo permeability lung edema model, E. coli-LPS is instilled intratracheally and after […] the lung is isolated and placed in an artificial thorax chamber. Then, perfusion occurs with autologous blood. After an one hour stabilisation period, the test compound (in 1 ml saline) is instilled intratracheally. Lung parameters are measured over 2 hours. The primary readout parameters of this […] model are wet weight of lung and heart and P/V curves which are parameters of lung mechanics and hemodynamics.
In this ex vivo lung edema model, E. coli-LPS (3 mg/kg) was instilled intratracheally into male Spraque-Dawley rats. After 18 h the lung was isolated and placed in an artificial thorax chamber. Then, perfusion occurred with autologous blood. After one hour stabilisation period, the test compound (in 1 ml saline) was instilled intratracheally. Lung parameters were measured over 2 h. The main read-outs were lung-weight and parameters of lung mechanics and hemodynamics. • Number of rats: n=7-8 per group • Data are means±SEM • Treatment groups:
? P9 • Perfusion conditions: • imposed pulmonary artery perfusion pressure: 20 mmHg • imposed left atrial pressure: 10 mmHg • resulting pulmonary blood flow: ˜6-9 ml/min • resulting pulmonary microvascular pressure: ˜14.5 mmHg • imposed tidal volume: 7 ml/kg; respiratory rate: 30 bpm • imposed positive end-expiratory airway pressure: 3.0 cmH2O-arterial pH: 7.5 • adjusted hematocrit: 28% (autologous blood)

In the next experiment the test system is in situ mouse lung. As to conditions: cited from earlier work.
Experiment [3] deals with microvascular endothelial cells. As to conditions: cited from earlier work.
The subject of the next experiment is rat lung. As to conditions: ex vivo and in vivo rat lung model; cited from earlier work.

Turning to “49 (CGTPEGAETPEGAETPEGAEGC; anti-edema peptide) [compound 49]”, the “Activity in TEER assay (c = 250 μM) (% of Tip activity)” value (“Activity … (% of Tip activity)” below) in experiment [1] is recorded as 139.9 % of Tip activity. Still for that read-out and setting: the result for “2 (CGTKPIELGPDEPKAVC; disulfide 1-17 (inferred)) [compound 2]” reads 130.1 % of Tip activity; that for “45 (CGQRETPDGADAKPWYC; anti-edema peptide) [compound 45]”, 172.4 % of Tip activity; that for “43 (CGQRETPEGADAKPWYC; anti-edema peptide) [compound 43]”, 139.8 % of Tip activity.

Take “SPEGGEGGGGGSPEGGEGGGGGSPEGGE (anti-edema peptide) [SEQ ID NO: 52]”: the “Attenuation of LPS-induced total lung weight gain / lung edema production” value in experiment [2] (listed as P9) is reported as “attenuating the LPS-induced total lung weight gain”. In addition, in experiment [2], the Inspiratory resistive work result is listed as “especially reduces”; the “Static and dynamic lung compliance” value is listed as “markedly ameliorates”; the “Effect on lung wet/dry weight ratio” value is “less pronounced”. Consider “11 (TPEGAEGGGGGTPEGAEGGGGGTPEGAE; anti-edema peptide) [compound 11]”, for which, in experiment [1], the “Activity … (% of Tip activity)” value was 80.0 % of Tip activity. On the same count and under the same terms, the result for “46 (CGQRETPDGAEAKPWYC; anti-edema peptide) [compound 46]” reads 130.4 % of Tip activity; that for “53 (CGSPEGGEGGGGGSPEGGEGGGGGSPEGGEGC; anti-edema peptide) [compound 53]”, 131.7 % of Tip activity. On the same count and under the same terms, in the case of “20 (GGSPSQRETPEGAEAKPWYGGSPSQRETPEGAEAKPWYGGSPSQRETPEGAEAKPWY; anti-edema peptide) [compound 20]” it was 539.0 % of Tip activity; in that of “52 (SPEGGEGGGGGSPEGGEGGGGGSPEGGE; anti-edema peptide) [compound 52]”, 87.1 % of Tip activity. For the substance “CGSPEGGDSPEGGDSPEGGDGC (anti-edema peptide) [Peptide P5]”, in experiment [2], the “Attenuation of LPS-induced total lung weight gain / lung edema production” value was “significantly attenuate; also recorded: attenuating the LPS-induced total lung weight gain”; the Inspiratory resistive work entry is recorded as “especially reduces”; the “Static and dynamic lung compliance” value was “markedly ameliorates”; the “Effect on lung wet/dry weight ratio” value is on record as “statistically significantly different from LPS+saline treated lungs”. Consider “50 (CGGGGGTPEGAEGGGGGTPEGAEGGGGGTPEGAEGC; anti-edema peptide) [compound 50]”, for which the “Activity … (% of Tip activity)” value in experiment [1] is reported as 156.5 % of Tip activity. Regarding “35 (CGQRESPEGAEAKPWYC; anti-edema peptide) [compound 35]”, the “Activity … (% of Tip activity)” value in experiment [1] was 120.9 % of Tip activity.

“5 (TPEGAETPEGAETPEGAETPEGAETPEGAE; anti-edema peptide) [compound 5]”: in experiment [1], the “Activity … (% of Tip activity)” value is listed as 93.0 % of Tip activity. Consider “51 (CGTPEGAETPEGAETPEGAETPEGAETPEGAEGC; anti-edema peptide) [compound 51]”, for which, in experiment [1], the “Activity … (% of Tip activity)” value is 146.6 % of Tip activity. On to “36 (CGQRESPEGADAKPWYC; anti-edema peptide) [compound 36]”, for which the “Activity … (% of Tip activity)” value in experiment [1] is 119.4 % of Tip activity.

Consider “54 (SPEGGDGGGGGSPEGGDGGGGGSPEGGD; anti-edema peptide) [compound 54]”, for which the “Activity … (% of Tip activity)” value in experiment [1] is recorded as 90.7 % of Tip activity. In the case of “39 (CGQRESPDGAEAKPWYC; anti-edema peptide) [compound 39]”, in experiment [1], the “Activity … (% of Tip activity)” value is 88.8 % of Tip activity. For “55 (CGSPEGGDGGGGGSPEGGDGGGGGSPEGGDGC; anti-edema peptide) [compound 55]”, in experiment [1], the “Activity … (% of Tip activity)” value is reported as 146.0 % of Tip activity. With CGQRETPEGAEAKPWYC [SEQ ID NO: 61], the Alveolar fluid reabsorption result in the experiment on in situ mouse lung and with rat lung was “up-regulated” throughout. Moreover, in experiment [3], the Membrane conductance entry is reported as “increased”. For the substance “40 (CGQRESPDGADAKPWYC; anti-edema peptide) [compound 40]”, the “Activity … (% of Tip activity)” value in experiment [1] is listed as 127.7 % of Tip activity. The same measure, in the same setting: in the case of “42 (CGQRESPDGGDAKPWYC; anti-edema peptide) [compound 42]” it was 123.6 % of Tip activity.

Source of the values: patent publication US20100317565A1, “Novel Peptides and Their Use for the Treatment of Edema” (Rentschler Beteiligungs GmbH, priority 2007, published 2010).
